From paper PMC3006138, “Fexinidazole – A New Oral Nitroimidazole Drug Candidate Entering Clinical Development for the Treatment of Sleeping Sickness” (PLoS Neglected Tropical Diseases, 2010)
“And” between values parts separate entries of the source, which are not always exact repeats. Equal entries are not always repeated. Where two headings read alike, the source gives them in different places.

What was measured:
[1] = tested on: T. b. gambiense (STIB 930); test: In vitro trypanocidal assay (Alamar Blue); type: cell-based, Trypanosoma brucei gambiense; conditions: Trypanosoma brucei, 72 h; read-out: IC50
Description: Parasites were cultured with or without the test article at a concentration of 3×10^4/mL in Minimal Essential Medium, according to Baltz et al., with the following modifications: 0.2 mM 2-mercaptoethanol, 1 mM Na-pyruvate, 0.5 mM hypoxanthine and 15% heat inactivated horse serum at 37°C in 5% CO2 in 96-well microtitre plates for 72 h. 10 µL of Alamar Blue was added for the final 3 h to determine viability. The assay was assessed by reading the fluorescence in each well at an excitation wavelength of 536 nm and at an emission wavelength of 588 nm. The IC50 values were calculated from the sigmoidal inhibition curves. For cytotoxicity, 4×10^4/mL L-6 rat skeletal myoblast cells were used, and incubations and assessments carried out as above.

[2] = Rat single-dose IV and oral pharmacokinetics; type: in vivo; conditions: for AUC(0-t): read-out: AUC0-t(last); for half-life: read-out: t1/2,z (converted)
Description: METHODS […] Fexinidazole was given as IV and oral administrations to male Sprague Dawley rats according to the following scheme Rat ID Route Dose (mg/kg) Formulation […] IV dose was administered via the tail vein, the oral dose was administered by gastric gavage. 4.2. […] On the day of dosing, approximately 0.3 mL of blood/sampling time were taken from the cannula using heparinized syringes, transferred immediately into tubes (pre-cooled in an ice/water bath) and centrifuged at […] The separated plasma was split into two aliquots, then stored at -80°C until analysis. […] 4.3. Bioanalytical Method Plasma concentrations of Fexinidazole were determined by a LC-MS-MS method. The lower limit of the bioanalytical method was 5.12 ng/mL. […] Details of the bioanalytical method were reported in Appendix 2 and the analytical performance was reported in Appendix 3. 4.4. […] For the calculations, pre-dose concentrations were set equal to C0.033 and equal to zero after IV and oral administrations, respectively. […] regression line. […] Absolute bioavailability was calculated from the ratio of the average oral to IV dose- normalized AUC0-∞ values. […] Plasma concentrations and pharmacokinetic parameters of Fexinidazole were reported to three significant figures. 5. RESULTS Mean ±SD systemic exposure parameters of Fexinidazole after IV and oral administrations of the compound are reported in Table 1. […] This side […] After oral administration, detectable concentrations of Fexinidazole were measured at the […] Mean ±SD maximal plasma concentration of Fexinidazole was 147 ±37 ng/mL, achieved 2 h post dosing. The concentrations of the compound were detectable up to the end of the experiment (8 h). […] Mean ±SD AUC0-∞ was 662 ±106 ng⋅h/mL. […] 6. CONCLUSIONS After both doses, low variability of the pharmacokinetic parameters of Fexinidazole was observed. […] Report Amendment for Study 0327-2007 2. […] METHODS […] The lower limit of the bioanalytical method was 5.00 ng/mL for both compounds. […] Details of the bioanalytical method are reported in Table 1 and the analytical performances of calibration standards are reported in Tables 2-5. 3.2.

[3] = Sprague Dawley, plasma, fexinidazole 5 mg/kg IV, male SD rats, read-out: Cmax (C0.033 for parent)
[4] = male, Sprague Dawley, plasma, fexinidazole 5 mg/kg IV
[5] = male, Sprague Dawley, plasma, fexinidazole 10 mg/kg oral
[6] = male, Sprague Dawley, plasma, fexinidazole 10 mg/kg oral, read-out: Cmax

Compound | IC50 [1] | Cmax [2, 3] | Tmax [2, 4] | AUC(0-t) [2, 4] | Tmax [2, 5] | AUC(0-t) [2, 5] | Cmax [2, 6] | clearance ([2]; male, Sprague Dawley, plasma, 5 mg/kg IV) | Vd ([2]; male, Sprague Dawley, plasma, 5 mg/kg IV, read-out: Vss) | half-life [2, 4] | half-life [2, 5] | AUC(0-inf) ([2]; male, Sprague Dawley, plasma, iv, 5 mg/kg, fexinidazole 5 mg/kg IV, read-out: AUC0-∞) | bioavailability ([2]; male, Sprague Dawley, plasma, oral, 10 mg/kg, oral 10 mg/kg vs IV 5 mg/kg, read-out: Absolute bioavailability F) | AUC(0-inf) ([2]; male, Sprague Dawley, plasma, po, 10 mg/kg, fexinidazole 10 mg/kg oral, read-out: AUC0-∞) | AUC(0-inf) ([2]; male, Sprague Dawley, plasma, po, 10 mg/kg, oral, normalized to 1 mg/kg, read-out: AUC0-∞, norm) | Absolute bioavailability F ([2]; oral 10 mg/kg vs IV 5 mg/kg)
Cn1c([N+](=O)[O-])cnc1COc1ccc(S(C)(=O)=O)cc1 [Fexinidazole sulfone] | 0.16 µg/mL to 0.39 µg/mL and 480 nM to 1.25 µM | 2090 ng/mL | 5.33 h | 9590 ng·h/mL | 6 h | 14300 ng·h/mL | 2660 ng/mL | – | – | – | – | – | – | – | – | –
Cn1c([N+](=O)[O-])cnc1COc1ccc([S+](C)[O-])cc1 (centres unmarked) [Fexinidazole sulfoxide] | 0.18 µg/mL to 0.36 µg/mL and 610 nM to 1.22 µM | 3070 ng/mL | 1 h | 9440 ng·h/mL | 2 h | 16200 ng·h/mL | 3520 ng/mL | – | – | – | – | – | – | – | – | –
CSc1ccc(OCc2ncc([N+](=O)[O-])n2C)cc1 [Fexinidazole, 1-methyl-2-((p-(methylthio)phenoxy)methyl)-5-nitroimidazole] | 0.16 µg/mL to 0.36 µg/mL and 580 nM to 1.29 µM | 3660 ± 217 ng/mL | – | 1160 ng·h/mL | 2 h | 631 ng·h/mL | 147 ± 36.6 ng/mL | 76.2 mL/min/kg | 4.69 L/kg | 103 min | 103 min | 1200 ± 26.5 ng·h/mL | 30% | 662 ± 106 ng·h/mL | 65.1 ng·h/mL | 29.7%
